# Measurements from US8129415B2.
# Experiment: logP by HPLC on reversed-phase column (C 18), EEC Directive 79/831 Annex V.A8
# Assay type: physicochemical
# Conditions: not given
row,chromatographic logP,SMILES
1,3.43,"CCCCCC(=O)Nc1cccc(CO/N=C(\c2cccc(C)n2)n2nnnc2C)n1 [compound 92, O-[2-(Pentylcarbonylamino)pyridin-6-yl]methyl-(6-methylpyridin-2-yl)-(5-methyltetrazol-1-yl)methanone Oxime]"
2,2.94,"CCCCCC(=O)Nc1nc(CO/N=C(\c2ncccc2C)c2nnnn2C)cs1 [compound 158, O-(2-Pentylcarbonylmino-1,3-thiazol-4-yl)methyl-(3-methylpyridin-2-yl)-(1-methyltetrazol-5-yl)methanone oxime]"
3,1.18,"Cc1cccc(/C(=N\OCc2cccc(N)n2)n2nnnc2C)n1 [compound 87, O-(2-Aminopyridin-6-yl)methyl-(6-methylpyridin-2-yl)-(5-methyltetrazol-1-yl)methanone oxime]"
4,1.04,"Cc1cccnc1/C(=N\OCc1csc(N)n1)c1nnnn1C [compound 157, O-(2-Amino-1,3-thiazol-4-yl)methyl-(3-methylpyridin-2-yl)-(1-methyltetrazol-5-yl)methanone Oxime]"
5,2.9,Cc1nnnn1/C(=N/OCc1csc(NC(=O)C(C)(C)C)n1)c1ccc(Cl)nc1 [compound 31]

# Same assay, conditions: HPLC reversed-phase C 18, 40° C., 0.1% aqueous formic acid and acetonitrile gradient
row,SMILES,LogP
1,CCCCCC(=O)Nc1nc(CON=C(c2ccccn2)n2nnnc2C)cs1 [compound 4],2.7
2,Cc1nnnn1C(=NOCc1csc(NC(=O)C2CC2)n1)c1ccccn1 [compound 14],1.99
3,Cc1nnnn1C(=NOCc1csc(NC(=O)c2ccco2)n1)c1ccc(Cl)nc1 [compound 69],2.46
4,Cc1nnnn1C(=NOCc1cccc(N)n1)c1ccccn1 [compound 9],0.76
5,Cc1nnnn1C(=NOCc1csc(NC(=O)NC(C)(C)C)n1)c1ccccn1 [compound 28],2.16
6,Cc1ccc(OC(=O)Nc2nc(CON=C(c3ccc(Cl)nc3)n3nnnc3C)cs2)cc1 [compound 76],3.48
7,Cc1nnnn1C(=NOCc1csc(N)n1)c1ccccn1 [compound 1],0.83
8,Cc1nnnn1C(=NOCc1csc(NC(=O)NC2CC2)n1)c1ccccn1 [compound 26],1.61
9,Cc1nnnn1C(=NOCc1csc(N)n1)c1ccc(Cl)nc1 [compound 34],1.27
10,Cc1nnnn1C(=NOCc1nonc1N)c1ccccn1 [compound 6],1.52
11,Cc1nnnn1C(=NOCc1nonc1N)c1ccc(Cl)nc1 [compound 33],1.88
12,Cc1nnnn1C(=NOCc1csc(NC(=O)c2ccccc2)n1)c1ccc(Cl)nc1 [compound 36],2.87
13,Cc1nnnn1C(=NOCc1nc(Cc2ccccc2)no1)c1ccc(Cl)nc1 [compound 49],3.09
14,Cc1nnnn1C(=NOCc1noc(-c2ccco2)n1)c1ccccn1 [compound 11],2.38
15,COc1ccc(C(=O)Nc2nc(CON=C(c3ccc(Cl)nc3)n3nnnc3C)cs2)cc1 [compound 57],2.97
16,Cc1nnnn1C(=NOCc1csc(NC(=O)NCc2ccccc2)n1)c1ccccn1 [compound 15],2.15

row,SMILES,LogP
1,Cc1nnnn1C(=NOCc1csc(NC(=O)NCCc2cccc(Cl)c2)n1)c1ccccn1 [compound 24],2.79
2,CCCNC(=O)Nc1nc(CON=C(c2ccccn2)n2nnnc2C)cs1 [compound 19],1.95
3,Cc1nnnn1C(=NOCc1csc(NC(=O)C2CCCCC2)n1)c1ccc(Cl)nc1 [compound 32],3.16
4,Cc1nnnn1C(=NOCc1csc(NC(=O)NC2CC2)n1)c1ccc(Cl)nc1 [compound 48],1.98
5,Cc1nnnn1C(=NOCc1csc(NC(=O)C2CCCC2)n1)c1ccc(Cl)nc1 [compound 58],2.97
6,Cc1nnnn1C(=NOCc1nsc(N)n1)c1ccc(Cl)nc1 [compound 44],1.78
7,Cc1nnnn1C(=NOCc1noc(-c2ccc(C(C)(C)C)cc2)n1)c1ccc(Cl)nc1 [compound 50],4.47
8,Cc1nc(CON=C(c2ccccn2)n2nnnc2C)cs1 [compound 7],1.76
9,Cc1nnnn1C(=NOCc1csc(NC(=O)c2cccs2)n1)c1ccc(Cl)nc1 [compound 59],2.82
10,Cc1nc(CON=C(c2ccc(Cl)nc2)n2nnnc2C)cs1 [compound 40],2.33
11,COCCC(=O)Nc1nonc1CON=C(c1ccc(Cl)nc1)n1nnnc1C [compound 72],2.17
12,Cc1nnnn1C(=NOCc1csc(NC(=O)C2CC2)n1)c1ccc(Cl)nc1 [compound 39],2.36
13,Cc1nnnn1C(=NOCc1nsc(N)n1)c1ccccn1 [compound 21],1.3
14,C=C(C)C(=O)Nc1nc(CON=C(c2ccccn2)n2nnnc2C)cs1 [compound 3],2.06
15,COc1ccc(CCNC(=O)Nc2nc(CON=C(c3ccccn3)n3nnnc3C)cs2)cc1 [compound 22],2.44

# Second part, the compound after the results:
row,LogP,SMILES
1,2.01,COC(=O)c1coc(CON=C(c2cccc(C)n2)n2nnnc2C)n1 [compound 98]
2,2.38,CCCC(=O)Nc1nc(CON=C(c2cccc(C)n2)n2nnnc2C)cs1 [compound 82]
3,2.7,CCCC(=O)Nc1cccc(CON=C(c2cccc(C)n2)n2nnnc2C)n1 [compound 90]
4,1.2,Cc1cccc(C(=NOCc2csc(N)n2)n2nnnc2C)n1 [compound 80]
5,4.5,Cc1cccc(C(=NOCc2noc(-c3ccc(C(C)(C)C)cc3)n2)n2nnnc2C)n1 [compound 93]
6,2.17,CCCNC(=O)Nc1nc(CON=C(c2cccc(C)n2)n2nnnc2C)cs1 [compound 103]
7,1.24,COc1ncccc1C(=NOCc1csc(N)n1)n1nnnc1C [compound 154]
8,2.78,Cc1cccc(C(=NOCc2csc(NC(=O)NCCc3ccc(F)cc3)n2)n2nnnc2C)n1 [compound 105]
9,3.43,Cc1cccc(C(=NOCc2csc(NC(=O)NCCc3ccc(Cl)cc3Cl)n2)n2nnnc2C)n1 [compound 106]
10,3.13,COc1ccncc1C(=NOCc1csc(NC(=O)c2ccccc2)n1)n1nnnc1C [compound 137]
11,3.34,Cc1cccc(C(=NOCc2csc(NC(=O)NCCc3ccc(Cl)c(Cl)c3)n2)n2nnnc2C)n1 [compound 102]
12,2.4,COCCOCC(=O)Nc1nc(CON=C(c2ccc(Cl)nc2)n2nnnc2C)cs1 [compound 78]
13,3.67,Cc1cccc(C(=NOCc2noc(-c3cccc(C(F)(F)F)c3)n2)n2nnnc2C)n1 [compound 86]
14,2.59,COc1cccc(CNC(=O)Nc2nc(CON=C(c3cccc(C)n3)n3nnnc3C)cs2)c1 [compound 104]
15,2.78,Cc1cccc(C(=NOCc2csc(NC(=O)c3ccccc3)n2)n2nnnc2C)n1 [compound 83]
16,2.72,Cc1cccc(C(=NOCc2csc(NC(=O)NCCc3ccccc3)n2)n2nnnc2C)n1 [compound 107]
17,2.62,Cc1cccnc1C(=NOCc1csc(NC(=O)Cc2ccccc2)n1)c1nnnn1C [compound 159]
18,3.44,CCCCCC(=O)Nc1nc(CON=C(c2cnccc2OC)n2nnnc2C)cs1 [compound 136]
19,3.11,Cc1cccc(C(=NOCc2noc(-c3ccccc3)n2)n2nnnc2C)n1 [compound 95]
20,1.94,Cc1cccc(C(=NOCc2nonc2N)n2nnnc2C)n1 [compound 84]
21,2.27,COc1ncccc1C(=NOCc1nc(N)sc1Br)n1nnnc1C [compound 153]
22,2.25,COCCC(=O)Nc1nc(CON=C(c2cnccc2OC)n2nnnc2C)cs1 [compound 138]
23,1.59,Cc1cccc(C(=NOCc2nsc(N)n2)n2nnnc2C)n1 [compound 96]
24,5.03,CCCCCCCCOC(=O)Nc1nc(CON=C(c2cnccc2OC)n2nnnc2C)cs1 [compound 147]
25,3.31,COc1ccncc1C(=NOCc1csc(NC(=O)CCc2ccccc2)n1)n1nnnc1C [compound 139]
26,2.4,C=C(C)C(=O)Nc1nc(CON=C(c2cccc(C)n2)n2nnnc2C)cs1 [compound 97]
27,1.03,COc1ncccc1C(=NOCc1cccc(N)n1)n1nnnc1C [compound 152]
28,2.69,COc1ccccc1CNC(=O)Nc1nc(CON=C(c2cccc(C)n2)n2nnnc2C)cs1 [compound 108]
